In patent US20220064260A1, “ISOLATED MHC-DERIVED HUMAN PEPTIDES AND USES THEREOF FOR STIMULATING AND ACTIVATING THE SUPPRESSIVE FUNCTION OF CD8+CD45RCLOW TREGS” (INSERM (INSTITUT NATIONAL DE LA SANTÉ ET DE LA RECHERCHE …, priority 2018, published 2022):

How the values were obtained:
CD8+CD45RClow Tregs [1] = test: Peptide stimulation assay (CD8+CD45RClow Treg activation by CD25 and CD69 expression); format: cell-based, human; settings: 5-days culture, syngeneic CD8+CD45RClow Tregs and autologous HLA-A2+ pDCs, IL-2 and CpG ODN, peptide 120 μg/ml, versus control peptide
Method: Peptide Stimulation Assay
CD8^+ CD45RC^low Treg cells and autologous pDCs from the same healthy HLA-A2^+ donor were co-cultured in serum-free Texmacs medium (Miltenyi Biotec) supplemented with IL-2 (25 U/ml, Proleukin, Novartis), CpG ODN 2006 (0.5 μM) and the different synthesized peptides (120 μg/ml) at a ratio 4:1 of Tregs:pDCs for 5 days. CD8^+CD45RC^low Treg activation was analyzed based on expression of CD69 and CD25 markers. As negative control and in order to normalize the results, a negative peptide was used (ALIAPVHAV). Dapi was used as viability marker. As a positive control, CD8^+ CD45RC^low Tregs were stimulated with anti-CD3 (OKT3, 1 μg/ml) and anti-CD28 mAbs (clone: CD28.2; 1 μg/ml). Results were analyzed using the FACS Canto II cytometer (BD Biosciences) and Flowjo software (Tree Star, Inc. USA, version 10).
For the peptide activation test, a non-parametric Wilcoxon signed-rank test, comparing column median to a hypothetical value of 1.0, was done. Analyses were made with GraphPad Prism 7 software (GraphPad).
Four 16aa peptides were designed from four random human MHC class II alleles based on the sequences of the Du51 peptide (NREEYARFDSDVGEYR) and the overlapping 12-mer peptide Bu31-10 (YLRYDSDVGEYR) both bearing the SDVGEYR motif at C-term end (FIG. 1): Hpep1 (NQEESVRFDSDVGEFR-SEQ ID NO: 1), Hpep2 (NREEYARFDSDVGEFR-SEQ ID NO: 2), Hpep3 (NREEYARFDSDVGVYR-SEQ ID NO: 3) and Hpep4 (NREEYVRFDSDVGEYR-SEQ ID NO: 4). We individually tested these peptides differing at positions 2, 5, 6, 14 or 15 in a 5-days culture assay using and syngeneic CD8^+CD45RC^low Tregs and autologous HLA-A2^+ pDCs from the same individuals in presence of interleukin-2 (IL-2) and CpG oligodeoxynucleotides (or CpG ODN) in serum free Texmacs medium (FIG. 2). […] These three peptides share the conserved SDVGE-X-R (SEQ ID NO: 13) 7aa motif while Hpep3 has in addition a valine (V) in place of the glutamic acid (E) at position 14 of the peptide, probably impacting TCR recognition.

CD8+CD45RClow Tregs [2] = test: Expansion in vitro of human CD8+CD45RClow Tregs; format: cell-based; settings: 14 days culture with autologous APCs, IL-2, IL-15 and CpG ODN, versus day 0
Method: Expansion In Vitro of Human CD8^+CD45RC^low Tregs
5×10^5 CD8^+CD45RC^low Tregs and 2×10^6 autologous APCs from HLA-A2^+ healthy donors were seeded in a 24 well plate in Texmacs Medium (Miltenyi Biotec), supplemented with penicillin (100 U/ml), streptomycin (100 μg/ml), rhlL-2 (1000 U/ml, Proleukin, Novartis), rhIL-15 (10 ng/ml, Miltenyi Biotec), CpG (0.5 μM), and the different peptides (120 μg/ml) derived from HLA-II molecule (GenScript). As negative control, a negative irrelevant peptide (ALIAPVHAV) was used. As a positive control, CD8^+CD45RC^low Tregs were stimulated with plate-coated anti-CD3 (clone: OKT3, 1 μg/ml) mAb and soluble anti-CD28 mAb (clone: CD28.2; 1 μg/ml). At day 7, Tregs were counted and re-expanded. Cytokines were freshly added twice a week. Finally, at day 14, cells were used for experiments.
To determine whether CD8^+ CD45RC^low Tregs could be expanded using this MHC-II derived peptide, an expansion protocol was set up using sorted CD8^+CD45RC^low/− Tregs and APCs from the same individual with the Hpep2 peptide in presence of IL-2, IL-15 and CpG ODN and compared to a polyclonal stimulation (anti-CD3/28) in similar conditions (FIG. 4).

CD4+CD25- T cells = test: Suppression assay (proliferation of CFSE-labeled CD4+CD25- Teffs stimulated with allogeneic APCs); format: cell-based, human; settings: Tregs expanded 14 days, co-cultured 5 days at 1:1:1 with syngeneic CD4+CD25- T cells and pooled allogeneic APCs; compared to fresh Tregs
Method: CFSE-labeled CD4^+ CD25^− Teffs and CD8^+ CD45RC^low Tregs from the same healthy volunteer (HLA-A2^+) were co-cultured with a pool of allogeneic APCs from 3 different healthy donors (HLA-A2^−) in RPMI1640 medium supplemented with 5% human AB serum. Culture was done at 1:1:1 ratio (where 1=5×10^4 cells/well) for 5 days in triplicate in a V-bottom 96 well plate. Proliferation of CD4^+CD25^− responder T cells was analyzed by flow cytometry (FACS Canto II BD Biosciences TM) by gating on CD3^+CD4^+ living cells (DAPI negative) and using Flowjo software (Tree Star, Inc. USA, version 10).

CD8+CD45RClow Tregs [3] = test: Extracellular and intracellular stainings of expanded Tregs (flow cytometry); format: cell-based, human; settings: 14 days expansion, Hpep2 versus anti-CD3/28 expanded Tregs
Method: Extracellular and Intracellular Stainings
For the analysis of GITR (clone: DT5D3, Miltenyi Biotec), Foxp3 (clone:259D/C7, BD Biosciences), IL-10 (clone: JES3-9D7 , BD Biosciences), IL-34 (clone: IC5265P, R&D), TGFβ1 (clone: TW4-9E7, BD Biosciences) and IFNγ (clone: B27, BD Biosciences), CD8^+CD45RC^low Treg cells were stimulated with PMA (50 ng/ml) and ionomycin (1 μg/ml) for 5 h in presence of Brefeldin A (10 μg/ml) for the last 4 hours in Texmacs medium (Miltenyi Biotec). In order to select viable cells, Fixable Viability Dye eF506 (ThermoFisher Scientific) was used as viability marker. Fc receptors were blocked before staining (BD Biosciences) and cells were permeabilized with Fix/Perm kit (Ebiociences) for intracellular staining Cell phenotype was analyzed by flow cytometry using the LSR II (BD Biosciences, Mountain View, Calif.) and Flowjo software (Tree Star. Inc. USA, version 10).

allograft = settings: rats treated with the peptide only (WO2015/150492); cited from earlier work

Sequence | CD25 expression on Tregs (CD8+CD45RClow Tregs [1]) | CD69 expression on Tregs (CD8+CD45RClow Tregs [1]) | total Treg fold expansion (CD8+CD45RClow Tregs [2]) [fold] | suppressive activity of expanded CD8+CD45RClow Tregs on an allogeneic immune response (CD4+CD25- T cells) | level of expression of Foxp3, GITR, IL-10, IFNγ and IL-34 in expanded CD8+CD45RClow Tregs (CD8+CD45RClow Tregs [3]) | allograft tolerance in recipient rats (allograft)
NREEYVRFDSDVGEYR (listed as Homo sapiens) [Hpep4, 16aa peptide designed from a human MHC class II allele] | upregulated | upregulated | – | – | – | –
NREEYARFDSDVGEFR (listed as Homo sapiens) [Hpep2, 16aa peptide designed from a human MHC class II allele] | upregulated | upregulated | 10 | efficient at suppressing an allogeneic immune response | no significant differences | –
NREEYARFDSDVGEYR [Du51, dominant MHC class II-derived antigen recognized by TCR-biased CD8+ Tregs in rats (WO2015/150492)] | – | – | – | – | – | donor-specific allograft tolerance induction
NQEESVRFDSDVGEFR (listed as Homo sapiens) [Hpep1, 16aa peptide designed from a human MHC class II allele] | upregulated | upregulated | – | – | – | –
